Data on 22 molecules can be found in patent US8741906B2 (priority 2011, dated 2014).

A word on the EC50: it is the concentration at which the effect is half-maximal.

In one assay the target is T1, human CB2 receptors (Homo sapiens, UniProt P34972).
T1 construct: expressed in transfected cells; host or cells: CHO cells
Nature of the assay: functional cAMP assay, human CB2. Type of assay: cell-based. The following applies: CHO cells expressing human CB2, cAMP; read-out: human CB2 EC50. Put shortly: (§1)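 Agonist EC50 values came from cAMP levels in CHO cells carrying human CB1 or CB2, after 30 min of compound treatment at 30 °C in the presence of 1 mM IBMX. Detection used a time-resolved FRET cAMP kit read against a cAMP standard curve.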

The next assay addresses T2, human CB1 receptors (Homo sapiens, UniProt P21554).
T2 construct: expressed in transfected cells; host or cells: CHO cells
Nature of the assay: functional cAMP assay, human CB1. The class given is cell-based. The gist of the method: as §1
(Changes in cAMP serve as a functional read-out for many G protein-coupled receptors.)

[1] abbreviates: CHO cells expressing human CB1, cAMP, read-out: human CB1 EC50.

Read-outs that look alike come from different tables or passages of the source.

T1 sequence (P34972 whole entry): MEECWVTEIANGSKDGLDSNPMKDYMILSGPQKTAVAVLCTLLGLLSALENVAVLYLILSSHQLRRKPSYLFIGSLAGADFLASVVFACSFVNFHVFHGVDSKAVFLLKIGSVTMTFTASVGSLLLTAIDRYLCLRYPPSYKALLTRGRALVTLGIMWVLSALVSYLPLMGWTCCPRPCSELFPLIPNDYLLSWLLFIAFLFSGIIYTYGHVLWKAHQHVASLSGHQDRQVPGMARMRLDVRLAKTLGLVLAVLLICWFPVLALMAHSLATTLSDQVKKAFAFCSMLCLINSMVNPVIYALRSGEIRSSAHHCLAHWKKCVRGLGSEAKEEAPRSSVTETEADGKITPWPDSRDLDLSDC
T2 sequence (P21554 whole entry): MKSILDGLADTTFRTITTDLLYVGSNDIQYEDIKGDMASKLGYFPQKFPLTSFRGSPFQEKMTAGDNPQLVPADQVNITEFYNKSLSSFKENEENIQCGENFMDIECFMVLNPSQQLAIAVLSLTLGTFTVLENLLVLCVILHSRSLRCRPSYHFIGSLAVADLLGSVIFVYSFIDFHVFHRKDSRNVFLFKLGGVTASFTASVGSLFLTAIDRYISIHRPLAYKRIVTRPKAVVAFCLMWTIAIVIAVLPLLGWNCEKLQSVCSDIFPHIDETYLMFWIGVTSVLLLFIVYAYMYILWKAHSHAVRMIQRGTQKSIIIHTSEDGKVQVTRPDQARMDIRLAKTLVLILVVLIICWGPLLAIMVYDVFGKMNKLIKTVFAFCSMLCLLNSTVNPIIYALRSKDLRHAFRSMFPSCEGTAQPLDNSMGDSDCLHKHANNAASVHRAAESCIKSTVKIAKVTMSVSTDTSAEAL

For `Cc1nnc(Cn2nnc3c(N4CCC(F)(F)C4)nc(C(C)(C)C)nc32)o1` [Example 128, 5-tert-Butyl-7-(3,3-difluoro-pyrrolidin-1-yl)-3-(5-methyl-[1,3,4]oxadiazol-2-ylmethyl)-3H-[1,2,3]triazolo[4,5-d]pyrimidine], the EC50 at human CB2 receptors was 0.4 nM; at human CB1 receptors (setting [1]), above 10000 nM.

Turning to `Cn1nnnc1Cn1nnc2c(N3CC(F)(F)C(F)(F)C3)nc(C(C)(C)C)nc21` [Example 176, 5-tert-Butyl-3-(1-methyl-1H-tetrazol-5-ylmethyl)-7-(3,3,4,4-tetrafluoro-pyrrolidin-1-yl)-3H-[1,2,3]triazolo[4,5-d]pyrimidine], the 50% effective concentration (EC50) stood at 0.5 nM at human CB2 receptors and 2000 nM at human CB1 receptors (setting [1]).

As to `CC(C)(C)c1nc(N2CC(F)(F)C(F)(F)C2)c2nnn(Cc3ccccc3Cl)c2n1` [Example 43, 5-tert-Butyl-3-(2-chloro-benzyl)-7-(3,3,4,4-tetrafluoro-pyrrolidin-1-yl)-3H-[1,2,3]triazolo[4,5-d]pyrimidine], the figures for the EC50 at human CB2 receptors and at human CB1 receptors (setting [1]) were 1.2 nM and 626 nM, respectively.

Regarding `CC(C)(C)c1nc(N2CCC(F)(F)C2)c2nnn(CCO)c2n1` [Example 63, 2-[5-tert-Butyl-7-(3,3-difluoro-pyrrolidin-1-yl)-[1,2,3]triazolo[4,5-d]pyrimidin-3-yl]-ethanol], the EC50 was 18.2 nM at human CB2 receptors and above 10000 nM at human CB1 receptors (setting [1]).

With `CC(C)(C)c1nc(N2CC[C@H](F)C2)c2nnn(Cc3ccccc3Cl)c2n1` [Example 36, 5-tert-Butyl-3-(2-chloro-benzyl)-7-((S)-3-fluoro-pyrrolidin-1-yl)-3H-[1,2,3]triazolo[4,5-d]pyrimidine], the concentration for a half-maximal effect (EC50) on human CB2 receptors turned out to be 0.6 nM; on human CB1 receptors (setting [1]) it was 432 nM.

`Cn1nncc1Cn1nnc2c(N3CC[C@H](O)C3)nc(C(C)(C)C)nc21` [Example 154, (S)-1-[5-tert-Butyl-3-(3-methyl-3H-[1,2,3]triazol-4-ylmethyl)-3H-[1,2,3]triazolo[4,5-d]pyrimidin-7-yl]-pyrrolidin-3-ol]: the EC50 on human CB2 receptors is 2.5 nM; on human CB1 receptors (setting [1]) it was above 10000 nM.

As for `Cn1nncc1Cn1nnc2c(N3CC4(COC4)C3)nc(C(C)(C)C)nc21` [Example 185, 5-tert-Butyl-3-(3-methyl-3H-[1,2,3]triazol-4-ylmethyl)-7-(2-oxa-6-aza-spiro[3.3]hept-6-yl)-3H-[1,2,3]triazolo[4,5-d]pyrimidine], the EC50 at human CB2 receptors was 26.8 nM; at human CB1 receptors (setting [1]) it was above 10000 nM.

For the molecule `CC(C)(C)c1nc(N2CC(O)C2)c2nnn(Cc3ccccc3Cl)c2n1` [Example 13], the figures for the EC50 at human CB2 receptors and at human CB1 receptors (setting [1]) were 12.3 nM and above 10000 nM, respectively.

As to `Cc1nc(Cn2nnc3c(N4CC[C@H](O)C4)nc(C(C)(C)C)nc32)n(C)n1` [Example 161, (S)-1-[5-tert-Butyl-3-(2,5-dimethyl-2H-[1,2,4]triazol-3-ylmethyl)-3H-[1,2,3]triazolo[4,5-d]pyrimidin-7-yl]-pyrrolidin-3-ol], the figures for the EC50 at human CB2 receptors and on human CB1 receptors (setting [1]) were 82.5 nM and above 10000 nM, respectively.

Take `CC(C)(C)c1nc(N2CCC[C@@H]2C#N)c2nnn(Cc3ccccc3Cl)c2n1` [Example 49, (R)-1-[5-tert-Butyl-3-(2-chloro-benzyl)-3H-[1,2,3]triazolo[4,5-d]pyrimidin-7-yl]-pyrrolidine-2-carbonitrile]: the 50% effective concentration (EC50) on human CB2 receptors came out at 1.1 nM; on human CB1 receptors (setting [1]), 155 nM.

On to `CC(C)(C)c1nc(N2CCOCC2)c2nnn(Cc3ccccc3Cl)c2n1` [Example 1, 5-tert-butyl-3-(2-chlorobenzyl)-7-morpholin-4-yl-3H-[1,2,3]triazolo[4,5-d]pyrimidine], for which the EC50 at human CB2 receptors was found to be 0.6 nM; on human CB1 receptors (setting [1]) it was 1060 nM.

With `Cc1nnc(Cn2nnc3c(N4CC5(COC5)C4)nc(C(C)(C)C)nc32)n1C` [Example 184, 5-tert-Butyl-3-(4,5-dimethyl-4H-[1,2,4]triazol-3-ylmethyl)-7-(2-oxa-6-aza-spiro[3.3]hept-6-yl)-3H-[1,2,3]triazolo[4,5-d]pyrimidine], the EC50 on human CB2 receptors was 112 nM; on human CB1 receptors, above 10000 nM.

In the case of `Cc1noc(C2CCCN2c2nc(C(C)(C)C)nc3c2nnn3Cc2ccccc2Cl)n1` (centres unmarked) [Example 203, 5-tert-Butyl-3-(2-chloro-benzyl)-7-[2-(3-methyl-[1,2,4]oxadiazol-5-yl)-pyrrolidin-1-yl]-3H-[1,2,3]triazolo[4,5-d]pyrimidine], the EC50 on human CB2 receptors is 53.1 nM; at human CB1 receptors (setting [1]), above 10000 nM.

As for `CC(C)(C)c1nc(N2CC[C@H](O)C2)c2nnn(Cc3cccc(Cl)c3Cl)c2n1` [Example 141, (S)-1-[5-tert-Butyl-3-(2,3-dichloro-benzyl)-3H-[1,2,3]triazolo[4,5-d]pyrimidin-7-yl]-pyrrolidin-3-ol], the EC50 at human CB2 receptors is 0.5 nM; on human CB1 receptors (setting [1]), above 10000 nM.

In the case of `CC1(Cn2nnc3c(N4CCC(F)(F)C4)nc(C(C)(C)C)nc32)COC1` [Example 114, 5-tert-Butyl-7-(3,3-difluoro-pyrrolidin-1-yl)-3-(3-methyl-oxetan-3-ylmethyl)-3H-[1,2,3]triazolo[4,5-d]pyrimidine], the EC50 on human CB2 receptors is 0.4 nM; on human CB1 receptors (setting [1]), above 10000 nM.

With `Cc1cc(Cn2nnc3c(N4CC[C@H](O)C4)nc(C(C)(C)C)nc32)n(C)n1` [Example 155, (S)-1-[5-tert-Butyl-3-(2,5-dimethyl-2H-pyrazol-3-ylmethyl)-3H-[1,2,3]triazolo[4,5-d]pyrimidin-7-yl]-pyrrolidin-3-ol], the results for the EC50 at human CB2 receptors and at human CB1 receptors (setting [1]) were 3 nM and above 10000 nM, respectively.

Regarding `COc1ccc(Cn2nnc3c(N4CCC(F)(F)C4)nc(C(C)(C)C)nc32)cc1` [Example 60, 5-tert-Butyl-7-(3,3-difluoro-pyrrolidin-1-yl)-3-(4-methoxy-benzyl)-3H-[1,2,3]triazolo[4,5-d]pyrimidine], the EC50 at human CB2 receptors is 2.5 nM; at human CB1 receptors (setting [1]), above 10000 nM.

For `CC(C)(C)c1nc(N2CCC3(COC3)C2)c2nnn(Cc3ccccc3Cl)c2n1` [Example 31, 5-tert-Butyl-3-(2-chloro-benzyl)-7-(2-oxa-6-aza-spiro[3.4]oct-6-yl)-3H-[1,2,3]triazolo[4,5-d]pyrimidine], the half-maximal effective concentration (EC50) at human CB2 receptors turned out to be 9.8 nM; at human CB1 receptors (setting [1]), 1260 nM.

Consider `Cn1nncc1Cn1nnc2c(N3CCC(F)(F)C3)nc(C(C)(C)C)nc21` [Example 145, 5-tert-Butyl-7-(3,3-difluoro-pyrrolidin-1-yl)-3-(3-methyl-3H-[1,2,3]triazol-4-ylmethyl)-3H-[1,2,3]triazolo[4,5-d]pyrimidine], for which the EC50 turned out to be 0.2 nM at human CB2 receptors and 2250 nM on human CB1 receptors (setting [1]).

As to `CC(C)(C)c1nc(N2CCC(F)(F)C2)c2nnn(Cc3c(F)ccc(Cl)c3Cl)c2n1` [Example 111, 5-tert-Butyl-3-(2,3-dichloro-6-fluoro-benzyl)-7-(3,3-difluoro-pyrrolidin-1-yl)-3H-[1,2,3]triazolo[4,5-d]pyrimidine], the results for the EC50 at human CB2 receptors and at human CB1 receptors (setting [1]) were 0.2 nM and 137 nM, respectively.

`COc1nc(C(C)(C)C)nc2c1nnn2Cc1ccccc1Cl` [Example 207, 5-tert-Butyl-3-(2-chloro-benzyl)-7-methoxy-3H-[1,2,3]triazolo[4,5-d]pyrimidine]: the EC50 on human CB2 receptors was 68 nM; on human CB1 receptors (setting [1]), above 10000 nM.

Turning to `CN(C)C1CCN(c2nc(C(C)(C)C)nc3c2nnn3Cc2ccccc2Cl)C1` (centres unmarked) [Example 191, {1-[5-tert-Butyl-3-(2-chloro-benzyl)-3H-[1,2,3]triazolo[4,5-d]pyrimidin-7-yl]-pyrrolidin-3-yl}-dimethyl-amine], the EC50 is 173 nM on human CB2 receptors and above 10000 nM on human CB1 receptors.
